Experiments:
glucocorticoid receptor = biological target: T1, glucocorticoid receptor (Homo sapiens, UniProt P04150); assay: MMTV-LTR renilla luciferase reporter assay in A549 cells (direct transactivation of gene expression); assay type: cell-based; conditions: 6 hour at 37° C., read-out: maximal response relative to Dexamethasone (100%)
T1 sequence (P04150 1-777): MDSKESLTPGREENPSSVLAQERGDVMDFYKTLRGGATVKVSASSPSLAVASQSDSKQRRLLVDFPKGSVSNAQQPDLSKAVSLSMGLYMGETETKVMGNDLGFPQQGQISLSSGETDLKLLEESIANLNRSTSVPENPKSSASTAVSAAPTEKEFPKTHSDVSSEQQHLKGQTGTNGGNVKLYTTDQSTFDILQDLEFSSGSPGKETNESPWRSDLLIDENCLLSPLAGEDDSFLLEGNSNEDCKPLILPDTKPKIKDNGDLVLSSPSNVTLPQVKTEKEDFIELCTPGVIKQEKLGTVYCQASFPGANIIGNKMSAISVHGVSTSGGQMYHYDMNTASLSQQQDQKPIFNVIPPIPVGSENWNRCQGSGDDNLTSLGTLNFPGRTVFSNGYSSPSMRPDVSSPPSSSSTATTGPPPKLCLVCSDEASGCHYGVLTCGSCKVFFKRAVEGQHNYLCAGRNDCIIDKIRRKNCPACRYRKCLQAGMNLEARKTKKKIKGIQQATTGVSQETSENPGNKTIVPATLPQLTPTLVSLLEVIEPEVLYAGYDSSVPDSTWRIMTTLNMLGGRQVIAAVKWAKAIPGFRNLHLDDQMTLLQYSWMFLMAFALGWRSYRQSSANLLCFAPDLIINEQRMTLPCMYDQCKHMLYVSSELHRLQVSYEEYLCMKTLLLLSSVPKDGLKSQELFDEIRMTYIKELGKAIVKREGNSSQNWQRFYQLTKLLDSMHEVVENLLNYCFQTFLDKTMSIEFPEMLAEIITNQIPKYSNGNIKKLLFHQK
Experimental: Pharmacological activity may be assessed in functional in vitro assays of glucocorticoid agonist activity.
The functional assay based on that described by R. J. H. Austin et al., Eur Resp J. (2002), 20, 1386-1392 measures the ability of compounds to directly transactivate gene expression. A549 cells stably transfected with a reporter gene containing the glucocorticoid responsive region of the mouse mammary tumour virus long terminal repeat (MMTV-LTR) coupled to renilla luciferase were treated with test compounds at appropriate doses for 6 hour at 37° C. The amount of luciferase activity present within the cells is then determined by measuring the light emitted following incubation with a suitable substrate.

Progesterone Receptor = biological target: T2, Progesterone Receptor (Homo sapiens, UniProt P06401); assay: Assay for Progesterone Receptor Activity: alkaline phosphatase upregulation in T47D cells; assay type: cell-based; conditions: 24 hours at 37° C.
T2 construct: The human breast cancer cell line T47D has been reported to upregulate an endogenous alkaline phosphatase in response to progestins; endogenous in cells; host or cells: T47D cells
T2 sequence (P06401 1-933): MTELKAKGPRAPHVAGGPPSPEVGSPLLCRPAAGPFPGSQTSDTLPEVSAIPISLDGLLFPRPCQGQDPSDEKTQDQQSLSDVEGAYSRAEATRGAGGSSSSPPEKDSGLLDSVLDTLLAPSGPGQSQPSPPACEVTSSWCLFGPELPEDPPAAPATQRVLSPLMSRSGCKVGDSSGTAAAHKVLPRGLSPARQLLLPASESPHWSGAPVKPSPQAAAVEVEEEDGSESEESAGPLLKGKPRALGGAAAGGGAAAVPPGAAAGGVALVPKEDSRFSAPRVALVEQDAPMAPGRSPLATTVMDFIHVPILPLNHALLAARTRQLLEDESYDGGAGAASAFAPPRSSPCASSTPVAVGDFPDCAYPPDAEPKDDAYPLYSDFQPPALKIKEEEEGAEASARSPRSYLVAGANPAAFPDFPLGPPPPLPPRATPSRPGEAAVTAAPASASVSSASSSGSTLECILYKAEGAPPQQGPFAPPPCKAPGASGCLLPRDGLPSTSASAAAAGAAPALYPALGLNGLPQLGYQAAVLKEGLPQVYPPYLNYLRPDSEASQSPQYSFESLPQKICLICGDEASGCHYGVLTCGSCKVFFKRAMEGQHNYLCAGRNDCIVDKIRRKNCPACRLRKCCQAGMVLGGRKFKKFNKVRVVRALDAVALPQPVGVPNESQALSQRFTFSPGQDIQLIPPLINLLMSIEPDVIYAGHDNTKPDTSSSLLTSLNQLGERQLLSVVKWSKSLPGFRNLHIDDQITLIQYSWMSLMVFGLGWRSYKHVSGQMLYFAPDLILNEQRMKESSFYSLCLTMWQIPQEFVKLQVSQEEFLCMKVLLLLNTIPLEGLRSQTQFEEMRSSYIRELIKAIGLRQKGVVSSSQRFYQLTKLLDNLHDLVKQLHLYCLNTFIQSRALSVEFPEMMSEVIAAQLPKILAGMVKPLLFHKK
Experimental: Assay for Progesterone Receptor Activity
The human breast cancer cell line T47D has been reported to upregulate an endogenous alkaline phosphatase in response to progestins (Di Lorenzo et al., Cancer Research (1991) 51, 4470-4475. T47D cells were seeded into 96 well plates at a density of 1×10^5 cells per well and grown overnight at 37° C. Steroids were dissolved in DMSO, added to the cells (final DMSO concentration 0.7%), and incubated for 24 hours at 37° C. The cells were then washed with PBS and lysed with RIPA buffer (1% IGEPAL, 0.5% Na deoxycholate, 0.1% SDS in phosphate buffered saline). Alkaline phosphatase activity was measured spectrophotometrically (405 nm) using p-nitrophenylphosphate (1.5 mg/ml) as a substrate dissolved in 1 M diethanolamine, 0.28M NaCl, 0.5 mM MgCl2. Dose response curves were constructed from which EC50 values were estimated.

Row | SMILES | Emax (glucocorticoid receptor) [%] | EC50 (Progesterone Receptor) [nM]
1 | CC1CC2C3CC(F)C4=CC(=O)C=CC4(C)C3(F)C(O)CC2(C)C1(OC(=O)C1C(C)(C)C1(C)C)C(=O)SCC#N (stereo not drawn) [Example 1, 6α,9α-Difluoro-11β-hydroxy-16α-methyl-3-oxo-17α-(2,2,3,3-tetramethycyclopropylcarbonyl)oxy-androsta-1,4-diene-17β-carbothioic Acid S-cyanomethyl Ester] | < 35 | 
2 | COc1c(C(=O)OC2(C(=O)SCC#N)C(C)CC3C4CC(F)C5=CC(=O)C=CC5(C)C4(F)C(O)CC32C)csc1Cl (stereo not drawn) [Example 3, 17α-(5-Chloro-4-methoxy-thiophene-3-carbonyl)oxy-6α,9α-difluoro-11β-hydroxy-16α-methyl-3-oxo-androsta-1,4-diene-17β-carbothioic Acid S-cyanomethyl Ester] | < 35 | 
3 | C[C@@H]1C[C@H]2[C@@H]3C[C@H](F)C4=CC(=O)C=C[C@]4(C)[C@@]3(F)[C@@H](O)C[C@]2(C)[C@@]1(OC(=O)C1CCCCC1)C(=O)OCC#N [Example 5, 17α-(Cyclohexylcarbonyl)oxy-6α,9α-difluoro-11β-hydroxy-16α-methyl-3-oxo-androsta-1,4-diene-17β-carboxylic Acid cyanomethyl Ester] | < 35 | > 100
4 | CC1CC2C3CC(F)C4=CC(=O)C=CC4(C)C3(F)C(O)CC2(C)C1(OC(=O)c1c(F)cccc1F)C(=O)OCC#N (stereo not drawn) [Example 6, 6α,9α-Difluoro-17α-(2,6-difluorobenzoyl)oxy-11β-hydroxy-16α-methyl-3-oxo-androsta-1,4-diene-17β-carboxylic Acid cyanomethyl Ester] | < 35 | 
5 | COc1ccc(C(=O)OC2(C(=O)OCC#N)C(C)CC3C4CC(F)C5=CC(=O)C=CC5(C)C4(F)C(O)CC32C)cc1 (stereo not drawn) [Example 7, 6α,9α-Difluoro-11β-hydroxy-17α-(4-methoxybenzoyl)oxy-16α-methyl-3-oxo-androsta-1,4-diene-17β-carboxylic Acid cyanomethyl Ester] | < 35 | 
6 | CC1CC2C3CC(F)C4=CC(=O)C=CC4(C)C3(F)C(O)CC2(C)C1(OC(=O)CC1CCCC1)C(=O)OCC#N (stereo not drawn) [Example 9, 17α-(Cyclopentylmethylcarbonyl)oxy-6α,9α-difluoro-11β-hydroxy-16α-methyl-3-oxo-androsta-1,4-diene-17β-carboxylic Acid Cyanomethyl Ester] | < 35 | 
7 | CC1CC2C3CC(F)C4=CC(=O)C=CC4(C)C3(F)C(O)CC2(C)C1(OC(=O)CC(C)(C)C)C(=O)OCC#N (stereo not drawn) [Example 10, 6α,9α-Difluoro-17α-(3,3-dimethylbutanoyl)oxy-11β-hydroxy-16α-methyl-3-oxo-androsta-1,4-diene-17β-carboxylic Acid Cyanomethyl Ester] | < 35 | 
8 | CC(C)c1nc(C(=O)O[C@]2(C(=O)OCC#N)[C@H](C)C[C@H]3[C@@H]4C[C@H](F)C5=CC(=O)C=C[C@]5(C)[C@@]4(F)[C@@H](O)C[C@@]32C)cs1 [Example 11, 6α,9α-Difluoro-11β-hydroxy-17α-(2-isopropyl-1,3-thiazole-4-carbonyl)oxy-16α-methyl-3-oxo-androsta-1,4-diene-17β-carboxylic Acid Cyanomethyl Ester] | < 35 | > 100
9 | CC1CC2C3CC(F)C4=CC(=O)C=CC4(C)C3(F)C(O)CC2(C)C1(OC(=O)c1ccc2ccccc2n1)C(=O)OCC#N (stereo not drawn) [Example 12, 6α,9α-Difluoro-11β-hydroxy-16α-methyl-3-oxo-17α-(quinoline-2-carbonyl)oxy-androsta-1,4-diene-17β-carboxylic Acid Cyanomethyl Ester] | < 35 | 
10 | CC1CC2C3CC(F)C4=CC(=O)C=CC4(C)C3(F)C(O)CC2(C)C1(OC(=O)c1ccc(C(F)(F)F)o1)C(=O)OCC#N (stereo not drawn) [Example 13, 6α,9α-Difluoro-11β-hydroxy-16α-methyl-3-oxo-17α-(5-trifluoromethyl-furan-2-carbonyl)oxy-androsta-1,4-diene-17β-carboxylic Acid Cyanomethyl Ester] | < 35 | 
11 | CC1CC2C3CC(F)C4=CC(=O)C=CC4(C)C3(F)C(O)CC2(C)C1(OC(=O)c1ccc(S(C)(=O)=O)s1)C(=O)OCC#N (stereo not drawn) [Example 14, 6α,9α-Difluoro-11β-hydroxy-16α-methyl-17α-(5-methylsulphonyl-thiophene-2-carbonyl)oxy-3-oxo-androsta-1,4-diene-17β-carboxylic Acid Cyanomethyl Ester] | < 35 | 
12 | CCc1cc(C(=O)OC2(C(=O)OCC#N)C(C)CC3C4CC(F)C5=CC(=O)C=CC5(C)C4(F)C(O)CC32C)no1 (stereo not drawn) [Example 16, 6α,9α-Difluoro-17α-(5-ethyl-isoxazole-3-carbonyl)oxy-11β-hydroxy-16α-methyl-3-oxo-androsta-1,4-diene-17β-carboxylic Acid Cyanomethyl Ester] | < 35 | 
13 | CC1CC2C3CCC4=CC(=O)C=CC4(C)C3(F)C(O)CC2(C)C1(OC(=O)C1C(C)(C)C1(C)C)C(=O)OCC#N (stereo not drawn) [Example 17, 9α-Fluoro-11β-hydroxy-16β-methyl-3-oxo-17α-(2,2,3,3-tetramethylcyclopropylcarbonyl)oxy-androsta-1,4-diene-17 b-carboxylic Acid cyanomethyl ester] | < 35 | 
14 | COc1c(C(=O)OC2(C(=O)OCC#N)C(C)CC3C4CC(F)C5=CC(=O)C=CC5(C)C4(F)C(O)CC32C)csc1Cl (stereo not drawn) [Example 19, 17α-(5-Chloro-4-methoxy-thiophene-3-carbonyl)oxy-6α,9α-difluoro-11β-hydroxy-16α-methyl-3-oxo-androsta-1,4-diene-17β-carboxylic Acid Cyanomethyl Ester] | < 35 | 
15 | CC1CC2C3CC(F)C4=CC(=O)C=CC4(C)C3(F)C(O)CC2(C)C1(OC(=O)C1C(C)(C)C1(Cl)Cl)C(=O)SCC#N (stereo not drawn) [Example 21, 17α-(22-Dichloro-3,3-dimethylclopropylcarbonyl)oxy-6α,9α-difluoro-11β-hydroxy-16α-methyl-3-oxo-androsta-1,4-diene-17β-carbothioic acid S-cyanomethyl Ester] | < 35 | 
16 | CC1CC2C3CC(F)C4=CC(=O)C=CC4(C)C3(F)C(O)CC2(C)C1(OC(=O)C1CCCCC1)C(=O)SCC#N (stereo not drawn) [Example 22, 17α-(Cyclohexylcarbonyl)oxy-6α,9α-difluoro-1,1-hydroxy-16α-methyl-3-oxo-androsta-1,4-diene-17β-carbothioic Acid S-cyanomethyl Ester] | < 35 | 

Reference: patent publication US7638508B2, “Glucocorticosteroid compound having anti-inflammatory activity” (Glaxo Group Limited, priority 2003, dated 2009)
